Data published in patent publication US20070128217A1 (priority 2003, published 2007).

Columns and labels:
[1] = tested on: control sera (pooled serum of ten healthy LUMC hospital workers; commercial negative donor pooled serum from the Dutch bloodbank); type: binding, human; set-up: Binding of Control serum LUMC to linear peptides / Binding of Control serum Blood-bank to linear peptides / Binding of Control serum LUMC to looped peptides / Binding of Control Serum Blood-Bank to Looped peptides / Binding of Control serum LUMC to linear peptides of the protein M of SARS-CoV Urbani / Binding of Control serum Blood-bank to linear peptides of the protein M of SARS-CoV Urbani / Binding of Control serum LUMC to looped peptides of the protein M of SARS-CoV Urbani / Binding of Control Serum Blood-Bank to Looped peptides of the protein M of SARS-CoV Urbani: unit not given here
[2] = tested on: antibodies in sera from SARS patients (sera 1a, 1b, 2, 6, 37, 62, London, SARS-yellow, SARS-green); type: binding, human; set-up: Binding of serum 6 to linear peptides of protein X1 of SARS-CoV Urbani / Binding of serum 37 to linear peptides of protein X1 of SARS-CoV Urbani / Binding of serum 6 to looped/cyclic peptide (PEPSCAN-ELISA) / Binding of serum 37 to looped/cyclic peptide (PEPSCAN-ELISA) / Binding of serum 37 to looped/cyclic peptides of protein X1 of SARS-CoV Urbani / Binding of serum 6 to linear peptides of protein X2 / Binding of serum 37 to linear peptides of protein X2 / Binding of serum 37 to looped/cyclic peptides of protein X2 of SARS-CoV Urbani / Binding of serum 6 to linear peptides of protein M of SARS-CoV Urbani / Binding of serum 37 to linear peptides of protein M of SARS-CoV Urbani / Binding of serum 6 to looped/cyclic peptides of protein M of SARS-CoV Urbani / Binding of serum 37 to looped/cyclic peptides of protein M of SARS-CoV Urbani / Binding of serum 6 to linear peptides of protein X3 of SARS-CoV Urbani / Binding of serum 37 to linear peptides of protein X3 of SARS-CoV Urbani / Binding of serum 37 to looped/cyclic peptides of protein X3 of SARS-CoV Urbani / Binding of serum 6 to linear peptides of protein X4 of SARS-CoV Urbani / Binding of serum 37 to linear peptides of protein X4 of SARS-CoV Urbani / Binding of serum 37 to looped/cyclic peptides of protein X4 of SARS-CoV Urbani / Binding of serum 6 to linear peptides of protein X5 of SARS-CoV Urbani / Binding of serum 37 to linear peptides of protein X5 of SARS-CoV Urbani / Binding of serum 37 to looped/cyclic peptides of protein X5 of SARS-CoV Urbani / Binding of serum 6 to linear peptides of protein N of SARS-CoV Urbani / Binding of serum 37 to linear peptides of protein N of SARS-CoV Urbani / Binding of serum 6 to linear peptide (PEPSCAN-ELISA) / Binding of serum 1a to looped/cyclic peptides of protein N of SARS-CoV Urbani / Binding of serum 1b to looped/cyclic peptides of protein N of SARS-CoV Urbani / Binding of serum 2 to looped/cyclic peptides of protein N of SARS-CoV Urbani / Binding of serum 6 to looped/cyclic peptides of protein N of SARS-CoV Urbani / Binding of serum 37 to looped/cyclic peptides of protein N of SARS-CoV Urbani / Binding of serum 62 to looped/cyclic peptides of protein N of SARS-CoV Urbani / Binding of serum London to looped/cyclic peptides of protein N of SARS-CoV Urbani / Binding of serum SARS-green to looped/cyclic peptides of protein N of SARS-CoV Urbani: unit not given here
[3] = tested on: rabbit serum obtained by immunizing a rabbit with the SARS-CoV strain Frankfurt 1; type: binding; set-up: Binding of a rabbit serum to linear peptides / Binding of a rabbit serum to looped peptides / Rabbit serum linear peptides / Rabbit serum looped peptides / Binding of a rabbit serum to linear peptides of protein N of SARS-CoV Urbani (Rabbit serum linear peptides) / Binding of a rabbit serum to looped/cyclic peptides of protein N of SARS-CoV Urbani (Rabbit serum looped peptides): unit not given here

Q: What does the source list for LEQWNLVIGFLFLAW?
A: Binding of Control Serum Blood-Bank to Looped peptides of the protein M of SARS-CoV Urbani [1]: 0.6; Binding of Control serum Blood-bank to linear peptides of the protein M of SARS-CoV Urbani [1]: 0.6; Binding of Control serum LUMC to linear peptides of the protein M of SARS-CoV Urbani [1]: 0.3; Binding of Control serum LUMC to looped peptides of the protein M of SARS-CoV Urbani [1]: 0.5; Binding of serum 1a to linear peptides of protein M of SARS-CoV Urbani [2]: 0.6; Binding of serum 1a to looped/cyclic peptides of protein M of SARS-CoV Urbani [2]: 0.6; Binding of serum 1b to linear peptides of protein M of SARS-CoV Urbani [2]: 0.4; Binding of serum 1b to looped/cyclic peptides of protein M of SARS-CoV Urbani [2]: 0.3; Binding of serum 2 to linear peptides of protein M of SARS-CoV Urbani [2]: 0.6; Binding of serum 2 to looped/cyclic peptides of protein M of SARS-CoV Urbani [2]: 0.7; Binding of serum 6 to linear peptides of protein M of SARS-CoV Urbani [2]: 0.5; Binding of serum 6 to looped/cyclic peptides of protein M of SARS-CoV Urbani [2]: 0.5; Binding of serum 37 to linear peptides of protein M of SARS-CoV Urbani [2]: 0.6; Binding of serum 37 to looped/cyclic peptides of protein M of SARS-CoV Urbani [2]: 0.7; Binding of serum 62 to linear peptides of protein M of SARS-CoV Urbani [2]: 0.7; Binding of serum 62 to looped/cyclic peptides of protein M of SARS-CoV Urbani [2]: 0.6; Binding of serum London to linear peptides of protein M of SARS-CoV Urbani [2]: 0.4; Binding of serum London to looped/cyclic peptides of protein M of SARS-CoV Urbani [2]: 0.2; Binding of serum SARS-green to linear peptides of protein M of SARS-CoV Urbani [2]: 0.3; Binding of serum SARS-green to looped/cyclic peptides of protein M of SARS-CoV Urbani [2]: 0.3; Binding of serum SARS-yellow to linear peptides of protein M of SARS-CoV Urbani [2]: 0.1; Binding of serum SARS-yellow to looped/cyclic peptides of protein M of SARS-CoV Urbani [2]: 0.6; Rabbit serum linear peptides [3]: 0.2; Rabbit serum looped peptides [3]: 0.4

Q: For LESTQITTDTGIENA, which “Binding of Control Serum Blood-Bank to Looped peptides” value [1] is on record?
A: 0.4

Q: And the “Binding of Control serum Blood-bank to linear peptides” value [1]?
A: 0.3

Q: What about the “Binding of Control serum LUMC to linear peptides” value [1] of the same sequence?
A: 0.4

Q: What about the “Binding of Control serum LUMC to looped peptides” value [1] of the same sequence?
A: 0.4

Q: And the “Binding of serum 1a to linear peptides of protein X1 of SARS-CoV Urbani” value [2]?
A: 0.6

Q: What about the “Binding of serum 1a to looped/cyclic peptides of protein X1 of SARS-CoV Urbani” value [2] of the same sequence?
A: 0.4

Q: What about the “Binding of serum 1b to linear peptides of protein X1 of SARS-CoV Urbani” value [2] of the same sequence?
A: 0.5

Q: And the “Binding of serum 1b to looped/cyclic peptides of protein X1 of SARS-CoV Urbani” value [2]?
A: 0.3

Q: What about the “Binding of serum 2 to linear peptides of protein X1 of SARS-CoV Urbani” value [2] of the same sequence?
A: 0.4

Q: And the “Binding of serum 2 to looped/cyclic peptides of protein X1 of SARS-CoV Urbani” value [2]?
A: 0.2

Q: What about the “Binding of serum 6 to linear peptides of protein X1 of SARS-CoV Urbani” value [2] of the same sequence?
A: 0.4

Q: And the “Binding of serum 6 to looped/cyclic peptides of protein X1 of SARS-CoV Urbani” value [2]?
A: 0.2

Q: And the “Binding of serum 37 to linear peptides of protein X1 of SARS-CoV Urbani” value [2]?
A: 0.5

Q: What about the “Binding of serum 37 to looped/cyclic peptides of protein X1 of SARS-CoV Urbani” value [2] of the same sequence?
A: 0.3

Q: And the “Binding of serum 62 to linear peptides of protein X1 of SARS-CoV Urbani” value [2]?
A: 0.4

Q: And the “Binding of serum 62 to looped/cyclic peptides of protein X1 of SARS-CoV Urbani” value [2]?
A: 0.4

Q: And the “Binding of serum London to linear peptides of protein X1 of SARS-CoV Urbani” value [2]?
A: 0.2

Q: And the “Binding of serum London to looped/cyclic peptides of protein X1 of SARS-CoV Urbani” value [2]?
A: 0.2

Q: And the “Binding of serum SARS-green to linear peptides of protein X1 of SARS-CoV Urbani” value [2]?
A: 0.1

Q: And the “Binding of serum SARS-green to looped/cyclic peptides of protein X1 of SARS-CoV Urbani” value [2]?
A: 0.2

Q: And the “Binding of serum SARS-yellow to linear peptides of protein X1 of SARS-CoV Urbani” value [2]?
A: 0.2

Q: What about the “Binding of serum SARS-yellow to looped/cyclic peptides of protein X1 of SARS-CoV Urbani” value [2] of the same sequence?
A: 0.3

Q: And the “Binding of a rabbit serum to linear peptides” value [3]?
A: 0.1

Q: And the “Binding of a rabbit serum to looped peptides” value [3]?
A: 0.5
